Measured values taken from the supplement of paper PMC10627819.

Tests used:
[1] = tested on: S. pneumoniae D39V; assay: fitness (endpoint OD595 vs no drug) (fraction); higher = more growth
Outline: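 Plates with 384 wells were inoculated at OD595 0.01 using 30 µl of TSB, LB Lennox or CY, or 55 µl for S. pneumoniae. Incubation was at 37 °C, with OD595 measured every 30 min for 14 h. Fitness is the stationary-phase transition optical density over the robust mean of no-drug control wells, after first-reading background subtraction; it is capped at 1.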

[2] = tested on: S. aureus Newman; assay: Bliss interaction score (quartile over a dose matrix) (fitness difference); higher = more antagonism (negative = synergy)
Outline: (§1)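 Fitness is OD595 at stationary-phase entry relative to the plate's robust no-drug mean, capped at 1. Single-drug fitness was inferred from combinations. The Bliss score is observed minus product-expected fitness, summarised by quartiles over technical, biological and donor/recipient replicates.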

[3] = tested on: B. subtilis 168; assay: as above
Outline: as §1

[4] = tested on: S. pneumoniae D39V; assay: as above
Outline: as §1

[5] = tested on: S. aureus DSM 20231; assay: as above
Outline: as §1
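Wherever Bliss interaction score (quartile over a dose matrix) is given: first quartile when negative (synergy) and third quartile when positive (antagonism).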

O=C1CN(/N=C/c2ccc([N+](=O)[O-])o2)C(=O)N1 [Nitrofurantoin] + C[n+]1ccc(-c2cc[n+](C)cc2)cc1 [Paraquat]
fitness, [1]
Conditions	partner 1.5 µg/mL	partner 3 µg/mL	partner 6 µg/mL
first compound 1.285 µg/mL	0.949	0.959	0.941
first compound 2.57 µg/mL	0.961	0.953	0.945

fitness, [1], one replicate
Conditions	first compound 2 µg/mL	first compound 4 µg/mL	first compound 5.14 µg/mL	first compound 8 µg/mL
partner 1.5 µg/mL	0.988	0.983	0.909	0.859
partner 3 µg/mL	0.965	0.968	0.927	0.871
partner 6 µg/mL	0.981	≥ 1	0.894	0.909

Conditions	Bliss interaction score
[2]	0.0529
[3]	0.0514
[4]	0.0462
[5]	0.0244

C[C@@H](O)[C@H]1C(=O)N2C(C(=O)O)=C(SCCNC=N)C[C@H]12 [Imipenem] + COc1c(N2C[C@@H]3CCCN[C@@H]3C2)c(F)cc2c(=O)c(C(=O)O)cn(C3CC3)c12 [Moxifloxacin]
fitness, [1]
Conditions	first compound 0.005 µg/mL	first compound 0.0065 µg/mL	first compound 0.01 µg/mL	first compound 0.013 µg/mL	first compound 0.02 µg/mL	first compound 0.026 µg/mL
partner 0.0037 µg/mL	–	0.821	–	0.805	–	0.751
partner 0.005 µg/mL	0.968	–	0.949	–	0.963	–
partner 0.0075 µg/mL	–	0.853	–	0.863	–	0.649
partner 0.01 µg/mL	0.99	–	0.981	–	0.976	–
partner 0.015 µg/mL	–	0.856	–	0.67	–	0.65
partner 0.02 µg/mL	0.933	–	0.904	–	0.941	–

Conditions	Bliss interaction score
[2]	0.0177
[3]	0.0307
[4]	0.0521
[5]	-0.0816

CC[C@H]1OC(=O)[C@H](C)[C@@H](O[C@H]2C[C@@](C)(OC)[C@@H](O)[C@H](C)O2)[C@H](C)[C@@H](O[C@@H]2O[C@H](C)C[C@H](N(C)C)[C@H]2O)[C@](C)(OC)C[C@@H](C)C(=O)[C@H](C)[C@@H](O)[C@]1(C)O [Clarithromycin] + CO[C@H]1/C=C/O[C@@]2(C)Oc3c(C)c(O)c4c(O)c(c(/C=N/N5CCN(C)CC5)c(O)c4c3C2=O)NC(=O)/C(C)=C\C=C\[C@H](C)[C@H](O)[C@@H](C)[C@@H](O)[C@@H](C)[C@H](OC(C)=O)[C@@H]1C [Rifampicin]
fitness, [1], one replicate
Conditions	first compound 0.007812 µg/mL	first compound 0.01562 µg/mL	first compound 0.03125 µg/mL	first compound 0.0625 µg/mL	first compound 0.125 µg/mL	first compound 0.25 µg/mL
partner 0.025 µg/mL	–	–	–	0.395	0.245	0.155
partner 0.05 µg/mL	0.647	0.466	0.293	–	–	–
partner 0.1 µg/mL	0.262	0.213	0.219	–	–	–
partner 0.2 µg/mL	0.122	0.15	0.196	0	0	0

fitness, [1]
Conditions	first compound 0.0625 µg/mL	first compound 0.07 µg/mL	first compound 0.125 µg/mL	first compound 0.14 µg/mL	first compound 0.25 µg/mL	first compound 0.28 µg/mL
partner 0.025 µg/mL	–	0.161	–	0.109	–	0.121
partner 0.05 µg/mL	0.362	0.17	0.215	0.164	0.108	0.102
partner 0.1 µg/mL	0.177	0.118	0.119	0.0954	0.114	0.138

Conditions	Bliss interaction score
[2]	0.0434
[3]	0.0788
[4]	0.0654
[5]	0.0272

C[C@@H](O)[C@H]1C(=O)N2C(C(=O)O)=C(SCCNC=N)C[C@H]12 [Imipenem] + CCC[C@@H]1C[C@@H](C(=O)N[C@@H]([C@H]2O[C@H](SC)[C@H](O)[C@@H](O)[C@H]2O)[C@@H](C)O)N(C)C1 [Lincomycin]
fitness, [1]
Conditions	first compound 0.005 µg/mL	first compound 0.0065 µg/mL	first compound 0.01 µg/mL	first compound 0.013 µg/mL	first compound 0.02 µg/mL	first compound 0.026 µg/mL
partner 0.2 µg/mL	–	0.68	–	0.738	–	0.693
partner 0.215 µg/mL	0.829	–	0.846	–	0.814	–
partner 0.4 µg/mL	–	0.563	–	0.626	–	0.596
partner 0.43 µg/mL	0.719	–	0.722	–	0.71	–
partner 0.8 µg/mL	–	0.0187	–	0.0703	–	0.0319
partner 0.86 µg/mL	0.474	–	0.451	–	0.453	–

Conditions	Bliss interaction score
[2]	0.0416
[3]	0.163
[4]	-0.0603
[5]	0.09

C[C@@H](O)[C@H]1C(=O)N2C(C(=O)O)=C(SCCNC=N)C[C@H]12 [Imipenem] + Cn1nnc(-c2ccc(-c3ccc(N4C[C@H](CO)OC4=O)cc3F)cn2)n1 [Tedizolid]
fitness, [1]
Conditions	first compound 0.005 µg/mL	first compound 0.0065 µg/mL	first compound 0.01 µg/mL	first compound 0.013 µg/mL	first compound 0.02 µg/mL	first compound 0.026 µg/mL
partner 0.03125 µg/mL	0.922	–	0.917	–	0.913	–
partner 0.0625 µg/mL	0.958	–	0.949	–	0.993	–
partner 0.125 µg/mL	0.829	0.68	0.795	0.758	0.82	0.553
partner 0.25 µg/mL	–	0.553	–	0.607	–	0.578
partner 0.5 µg/mL	–	0.125	–	0.161	–	0.151

Conditions	Bliss interaction score
[2]	0.0821
[3]	0.21
[4]	-0.17
[5]	-0.0424

C[C@@H](O)[C@H]1C(=O)N2C(C(=O)O)=C(SCCNC=N)C[C@H]12 [Imipenem] + CCN(CC)CCOC(=O)c1ccc(N)cc1 [Procaine]
fitness, [1], one replicate
Conditions	first compound 0.005 µg/mL	first compound 0.01 µg/mL	first compound 0.02 µg/mL
partner 85.5 µg/mL	0.932	0.963	0.985
partner 171 µg/mL	≥ 1	0.994	≥ 1
partner 342 µg/mL	0.923	0.931	0.883

fitness, [1]
Conditions	first compound 0.0065 µg/mL	first compound 0.013 µg/mL	first compound 0.026 µg/mL
partner 85.5 µg/mL	0.977	0.978	0.888
partner 171 µg/mL	0.957	0.963	0.917
partner 342 µg/mL	0.957	0.912	0.841

Conditions	Bliss interaction score
[2]	0.0422
[3]	0.0429
[4]	0.0493
[5]	0.0667

CCC[C@@H]1C[C@@H](C(=O)N[C@@H]([C@H]2O[C@H](SC)[C@H](O)[C@@H](O)[C@H]2O)[C@@H](C)O)N(C)C1 [Lincomycin] + C/C(=C\C(=O)OCCCCCCCCC(=O)O)C[C@@H]1OC[C@H](C[C@@H]2O[C@H]2[C@@H](C)[C@H](C)O)[C@@H](O)[C@H]1O [Pseudomonic acid]
fitness, [1]
Conditions	first compound 0.2 µg/mL	first compound 0.215 µg/mL	first compound 0.4 µg/mL	first compound 0.43 µg/mL	first compound 0.8 µg/mL	first compound 0.86 µg/mL
partner 0.03 µg/mL	0.649	0.828	–	0.633	0.121	0.177
partner 0.06 µg/mL	–	–	0.206	–	0.0533	0.142
partner 0.12 µg/mL	0.179	–	0.156	–	0.0889	0.12

Conditions	Bliss interaction score
[2]	0.031
[3]	-0.0308
[4]	-0.269
[5]	0.0155

C[C@@H](O)[C@H]1C(=O)N2C(C(=O)O)=C(SCCNC=N)C[C@H]12 [Imipenem] + Cc1onc(-c2ccccc2)c1C(=O)N[C@@H]1C(=O)N2[C@@H]1SC(C)(C)[C@@H]2C(=O)O [Oxacillin]
fitness, [1]
Conditions	first compound 0.005 µg/mL	first compound 0.0065 µg/mL	first compound 0.01 µg/mL	first compound 0.013 µg/mL	first compound 0.02 µg/mL	first compound 0.026 µg/mL
partner 0.01 µg/mL	0.963	0.968	0.983	0.996	0.95	0.956
partner 0.02 µg/mL	0.92	0.845	0.933	0.902	0.905	0.812
partner 0.04 µg/mL	0.524	0.0658	0.511	0.171	0.468	0.109

Conditions	Bliss interaction score
[2]	0.0474
[3]	-0.048
[4]	0.0736
[5]	-0.0527

C/C(=C\C(=O)OCCCCCCCCC(=O)O)C[C@@H]1OC[C@H](C[C@@H]2O[C@H]2[C@@H](C)[C@H](C)O)[C@@H](O)[C@H]1O [Pseudomonic acid] + CO[C@H]1/C=C/O[C@@]2(C)Oc3c(C)c(O)c4c(O)c(c(/C=N/N5CCN(C)CC5)c(O)c4c3C2=O)NC(=O)/C(C)=C\C=C\[C@H](C)[C@H](O)[C@@H](C)[C@@H](O)[C@@H](C)[C@H](OC(C)=O)[C@@H]1C [Rifampicin]
[1], partner 0.025 µg/mL, one replicate
Conditions	fitness
first compound 0.03 µg/mL	0.872
first compound 0.06 µg/mL	0.79
first compound 0.12 µg/mL	0.742

[1], first compound 0.12 µg/mL
Conditions	fitness
partner 0.05 µg/mL	0.608
partner 0.2 µg/mL	0.136

Conditions	Bliss interaction score
[2]	-0.0134
[3]	0.0416
[4]	0.14
[5]	0.0229

O=C1CN(/N=C/c2ccc([N+](=O)[O-])o2)C(=O)N1 [Nitrofurantoin] + Cc1cc(NS(=O)(=O)c2ccc(N)cc2)no1 [Sulfamethoxazol]
fitness, [1]
Conditions	partner 1 µg/mL	partner 2 µg/mL	partner 4 µg/mL
first compound 1.285 µg/mL	0.952	0.957	0.91
first compound 2.57 µg/mL	0.942	0.948	0.944

fitness, [1], one replicate
Conditions	first compound 2 µg/mL	first compound 4 µg/mL	first compound 5.14 µg/mL	first compound 8 µg/mL
partner 1 µg/mL	0.937	0.944	0.92	0.805
partner 2 µg/mL	0.929	0.934	0.929	0.833
partner 4 µg/mL	0.842	0.859	0.927	0.768

Conditions	Bliss interaction score
[2]	0.0591
[3]	0.0955
[4]	0.049
[5]	-0.0311
